The record followed here is ChEMBL document CHEMBL4725311, “Discovery of potent, orally bioavailable in vivo efficacious antagonists of the TLR7/8 pathway” (Bioorg Med Chem Lett, 2020).

Data set [1] can be described thus: Oral bioavailability in BALB/c mouse at 20 mg/kg. The data set is classed as ADME, organism-based. The note with it: in vivo.
Data set [2] is described as follows: Cmax in BALB/c mouse at 20 mg/kg, po. The arrangement: route oral, dose 20 mg/kg. Particulars: in vivo. The data set is classed as ADME, organism-based.
Data set [3] can be described thus: AUC in BALB/c mouse at 20 mg/kg, po. The format is ADME, organism-based. The arrangement: dose 20 mg/kg. The note with it: in vivo.
In data set [4] the target is T1, Toll-like receptor 7 (Mus musculus, UniProt P58681).
T1 sequence (P58681 whole entry): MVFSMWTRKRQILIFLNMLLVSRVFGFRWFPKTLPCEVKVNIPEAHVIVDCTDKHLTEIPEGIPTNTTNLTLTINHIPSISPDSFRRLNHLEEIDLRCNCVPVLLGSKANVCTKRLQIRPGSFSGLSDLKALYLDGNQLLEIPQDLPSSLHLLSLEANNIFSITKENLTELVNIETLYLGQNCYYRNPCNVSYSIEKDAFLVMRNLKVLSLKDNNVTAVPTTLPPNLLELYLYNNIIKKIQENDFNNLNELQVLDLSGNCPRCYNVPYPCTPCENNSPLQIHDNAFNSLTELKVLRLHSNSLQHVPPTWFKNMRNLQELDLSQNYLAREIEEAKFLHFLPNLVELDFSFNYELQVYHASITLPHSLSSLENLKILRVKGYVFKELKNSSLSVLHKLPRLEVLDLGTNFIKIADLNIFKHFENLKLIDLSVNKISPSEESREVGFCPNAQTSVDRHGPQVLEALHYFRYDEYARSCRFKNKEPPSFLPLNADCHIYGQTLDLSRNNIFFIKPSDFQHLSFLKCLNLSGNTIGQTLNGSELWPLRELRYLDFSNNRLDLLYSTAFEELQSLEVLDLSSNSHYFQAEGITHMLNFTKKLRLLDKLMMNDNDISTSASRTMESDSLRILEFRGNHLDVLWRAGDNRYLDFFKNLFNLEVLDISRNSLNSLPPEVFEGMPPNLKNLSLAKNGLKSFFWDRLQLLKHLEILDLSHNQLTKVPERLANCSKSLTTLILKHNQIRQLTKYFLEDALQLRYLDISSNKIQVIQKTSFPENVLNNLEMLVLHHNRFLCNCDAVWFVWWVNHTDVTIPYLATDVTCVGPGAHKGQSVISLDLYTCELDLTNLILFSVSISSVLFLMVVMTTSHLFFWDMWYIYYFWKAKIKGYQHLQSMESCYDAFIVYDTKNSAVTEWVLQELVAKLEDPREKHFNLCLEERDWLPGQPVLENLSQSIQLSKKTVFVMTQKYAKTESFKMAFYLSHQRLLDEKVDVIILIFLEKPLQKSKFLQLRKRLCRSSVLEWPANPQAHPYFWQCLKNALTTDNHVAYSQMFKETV
Nature of the data set: Antagonist activity at TLR7 in mouse splenocytes assessed as inhibition of ssRNA40-induced IL6 production. The data set is classed as cell-based, Splenocyte.

Data set [5] deals with T2, Toll-like receptor 9 (Mus musculus, UniProt Q9EQU3).
T2 sequence (Q9EQU3 whole entry): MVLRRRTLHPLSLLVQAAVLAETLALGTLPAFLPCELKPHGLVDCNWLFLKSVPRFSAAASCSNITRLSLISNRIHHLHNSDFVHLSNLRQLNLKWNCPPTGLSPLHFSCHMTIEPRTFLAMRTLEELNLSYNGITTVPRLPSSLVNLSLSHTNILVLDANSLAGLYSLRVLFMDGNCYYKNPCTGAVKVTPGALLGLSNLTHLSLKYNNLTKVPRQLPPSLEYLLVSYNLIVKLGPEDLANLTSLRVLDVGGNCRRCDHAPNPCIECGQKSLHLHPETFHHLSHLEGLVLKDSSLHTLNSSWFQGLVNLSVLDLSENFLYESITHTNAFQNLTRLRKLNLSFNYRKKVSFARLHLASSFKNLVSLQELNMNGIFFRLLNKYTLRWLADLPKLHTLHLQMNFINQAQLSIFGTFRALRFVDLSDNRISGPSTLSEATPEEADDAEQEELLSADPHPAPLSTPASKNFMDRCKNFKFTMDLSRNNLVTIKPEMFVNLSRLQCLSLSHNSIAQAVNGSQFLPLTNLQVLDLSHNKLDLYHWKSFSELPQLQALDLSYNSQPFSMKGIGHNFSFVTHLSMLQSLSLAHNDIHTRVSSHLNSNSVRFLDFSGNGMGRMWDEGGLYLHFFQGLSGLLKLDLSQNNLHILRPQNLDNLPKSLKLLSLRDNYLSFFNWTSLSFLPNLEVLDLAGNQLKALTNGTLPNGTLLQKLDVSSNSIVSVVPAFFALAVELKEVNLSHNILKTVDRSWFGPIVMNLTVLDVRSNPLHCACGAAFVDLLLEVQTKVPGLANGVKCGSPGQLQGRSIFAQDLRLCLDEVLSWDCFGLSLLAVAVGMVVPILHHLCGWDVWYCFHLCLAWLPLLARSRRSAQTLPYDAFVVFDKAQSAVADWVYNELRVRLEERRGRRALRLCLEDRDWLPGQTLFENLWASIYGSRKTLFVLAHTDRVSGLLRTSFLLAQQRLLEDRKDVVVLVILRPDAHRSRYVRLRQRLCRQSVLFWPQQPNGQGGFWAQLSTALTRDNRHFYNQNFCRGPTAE
Nature of the data set: Antagonist activity at TLR9 in mouse splenocytes assessed as inhibition of CpG1585-induced IL6 production. The format is cell-based, Splenocyte.

Data set [6] concerns the target T3, Toll-like receptor 9 (Homo sapiens, UniProt Q9NR96).
T3 sequence (Q9NR96 whole entry): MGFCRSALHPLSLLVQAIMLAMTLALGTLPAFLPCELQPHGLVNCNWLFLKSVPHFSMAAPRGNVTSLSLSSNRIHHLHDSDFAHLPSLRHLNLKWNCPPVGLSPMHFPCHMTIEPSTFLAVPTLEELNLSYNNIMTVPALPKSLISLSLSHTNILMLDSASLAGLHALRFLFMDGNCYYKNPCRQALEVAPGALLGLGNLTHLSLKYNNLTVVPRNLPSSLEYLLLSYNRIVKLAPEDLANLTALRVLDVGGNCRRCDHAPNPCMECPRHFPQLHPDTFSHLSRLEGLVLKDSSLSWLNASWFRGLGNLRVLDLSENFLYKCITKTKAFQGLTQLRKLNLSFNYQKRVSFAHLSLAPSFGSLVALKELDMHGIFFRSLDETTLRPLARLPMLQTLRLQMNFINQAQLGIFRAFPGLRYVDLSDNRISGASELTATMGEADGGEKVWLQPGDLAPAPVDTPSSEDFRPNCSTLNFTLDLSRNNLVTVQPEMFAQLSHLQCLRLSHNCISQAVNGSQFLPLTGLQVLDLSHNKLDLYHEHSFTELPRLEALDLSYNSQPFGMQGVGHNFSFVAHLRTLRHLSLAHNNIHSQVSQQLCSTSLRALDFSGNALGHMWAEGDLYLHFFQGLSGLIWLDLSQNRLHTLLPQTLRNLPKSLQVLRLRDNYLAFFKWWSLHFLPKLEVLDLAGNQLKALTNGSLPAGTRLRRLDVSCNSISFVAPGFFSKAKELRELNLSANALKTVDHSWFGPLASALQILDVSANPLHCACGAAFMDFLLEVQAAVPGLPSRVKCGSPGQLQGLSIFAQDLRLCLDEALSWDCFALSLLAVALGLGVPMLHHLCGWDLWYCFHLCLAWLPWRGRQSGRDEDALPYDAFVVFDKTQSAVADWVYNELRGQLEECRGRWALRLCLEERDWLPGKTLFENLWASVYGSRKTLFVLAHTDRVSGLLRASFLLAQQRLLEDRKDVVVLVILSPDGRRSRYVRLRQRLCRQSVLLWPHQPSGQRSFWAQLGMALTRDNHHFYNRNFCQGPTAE
Kind of data set: Antagonist activity at TLR9 in human PBMC assessed as inhibition of ODN2216-induced IFNalpha production. The data set is classed as tissue-based.

A short description of data set [7]: Volume of distribution at steady state in BALB/c mouse at 5 mg/kg, iv. The format is ADME, organism-based. Particulars: in vivo, read-out: Vdss.
Data set [8] can be described thus: Clearance in BALB/c mouse at 5 mg/kg, iv. The format is ADME, organism-based. Particulars: in vivo.
Data set [9] in a line: Terminal half life in BALB/c mouse at 5 mg/kg, iv. The data set is classed as ADME, organism-based. Particulars: in vivo, read-out: beta t1/2 (converted).
Data set [10] is described as follows: Drug uptake in 129Sv mouse at 5 mg/kg, po measured after 2 hrs. The data set is classed as ADME, organism-based. The note with it: in vivo, read-out: Drug uptake.
Data set [11] addresses T1, Toll-like receptor 7. Kind of data set: Antagonist activity at TLR7 in mouse P4H1 cells assessed as inhibition of imiquimod-induced IL6 production. The format is cell-based.
The nature of data set [12]: Drug uptake in 129Sv mouse at 30 mg/kg, ip measured after 2 hrs. The format is ADME, organism-based. The note with it: in vivo, read-out: Drug uptake.

pIC50: −log10 of the molar value. Some results are limits rather than exact numbers.

`Cc1cc(-c2ccnc3[nH]ncc23)cnc1OCC12CCC(O)(CC1)CC2`: the bioavailability in [1] stood at 43%. Besides, the highest level in [2] (Cmax) was 4.37 µM. This compound also returned an AUC in [3] of 36.3 µM·h. Moreover, the negative logarithm of the IC50 (pIC50) is 7.26 at Toll-like receptor 7 [4], less than 5.00 on Toll-like receptor 9 [5] and less than 5.30 on Toll-like receptor 9 [6]. Besides, the Vd in data set [7] came out at 3.1 L/kg. Further, in data set [8], the clearance amounted to 0.66 L/h/kg. In [9], the half-life is 4.7 h.
As for `Cl.Cn1nc(-c2ccc(OCC34CCC(N)(CC3)CC4)c(F)c2)c2cnc(N)nc21`, the concentration at 2 h in data set [10] came out at 0.3 µM.
For `Cn1nc(-c2ccc(OC[C@H]3CC[C@H](N)CC3)c(F)c2)c2cnc(N)nc21`, the negative logarithm of the IC50 (pIC50) was 6.96 at Toll-like receptor 7 [4], 5.72 on Toll-like receptor 9 [5] and 5.85 on Toll-like receptor 9 [6].
As for `Cn1nc(-c2ccc(OCC34CCC(O)(CC3)CC4)c(F)c2)c2cnc(N)nc21`, the values for the pIC50 on Toll-like receptor 7 [4], on Toll-like receptor 9 [5] and on Toll-like receptor 9 [6] were 5.92, 5.55 and 5.28, respectively.
For the compound `CN1CCN(CCCOc2ccc(-c3nn(C)c4nc(N)ncc34)cc2F)CC1`, the pIC50 at Toll-like receptor 7 [11] is 6.77; at Toll-like receptor 7 [4], 5.70; at Toll-like receptor 9 [5], 5.70.
For `Cn1nc(-c2ccc(OC[C@H]3CC[C@@H](N)CC3)c(F)c2)c2cnc(N)nc21`, the negative logarithm of the IC50 (pIC50) on Toll-like receptor 7 [4] is 6.82; on Toll-like receptor 9 [5], 5.92; at Toll-like receptor 9 [6], 5.66.
The like results for `Cn1nc(-c2ccc(OCC3CCNCC3)c(F)c2)c2cnc(N)nc21` were, in that order, 6.66, 5.70 and 5.47.
The like results for `Cc1cc(-c2ccc(OCC34CCC(N)(CC3)CC4)c(F)c2)c2cnc(N)nn12` were, in that order, 7.03, 6.34 and 5.47.
In the case of `Cc1cc(-c2cnc(OCC34CCC(N)(CC3)CC4)c(C)c2)c2cnn(C)c2n1`, the bioavailability in [1] was 150%. In addition, the Cmax in [2] worked out at 1.4 µM. This compound returned an exposure (AUC) in data set [3] of 28.9 µM·h. The Vd in data set [7] is 13.8 L/kg. In [8], this compound showed a clearance of 2.64 L/h/kg. Further, in [9], the half-life was 4.9 h.
As for `Cc1cc(-c2nn(C)c3nc(N)ncc23)cnc1OCC12CCC(N)(CC1)CC2`, the bioavailability in data set [1] was found to be 34%. The peak concentration (Cmax) in [2] is 0.354 µM. Also, the AUC in data set [3] worked out at 2.98 µM·h. Further, the negative logarithm of the IC50 (pIC50) at Toll-like receptor 9 [6] is 5.48. Besides, the Vd in [7] is 15 L/kg. In data set [8], the clearance worked out at 5.76 L/h/kg. For the same compound, the half-life in data set [9] was 4.1 h.
As to `Cn1nc(-c2ccc(OCC3CC4(CNC4)C3)c(F)c2)c2cnc(N)nc21`, the pIC50 is 5.92 on Toll-like receptor 9 [5] and 5.19 at Toll-like receptor 9 [6].
Turning to `Cn1nc(-c2ccc(OCC3C[C@H]4CC[C@@H](C3)N4)c(F)c2)c2cnc(N)nc21` (stereo partly specified), the negative logarithm of the IC50 (pIC50) is 6.92 at Toll-like receptor 7 [4], 5.92 at Toll-like receptor 9 [5] and 5.92 at Toll-like receptor 9 [6].
With `Cn1ncc2c(-c3ccc(OCC45CCC(N)(CC4)CC5)c(F)c3)nc(N)nc21`, the pIC50 on Toll-like receptor 7 [4] is 6.52; on Toll-like receptor 9 [5] it was 6.10; at Toll-like receptor 9 [6] it was 5.43.
Regarding `Cn1nc(-c2ccc(OCCCC3CCNCC3)c(F)c2)c2cnc(N)nc21`, the bioavailability in data set [1] is 0%. Besides, the pIC50 was 7.01 on Toll-like receptor 7 [4], 5.89 on Toll-like receptor 9 [5] and 5.64 at Toll-like receptor 9 [6]. Also, the concentration at 2 h in data set [12] came to 1.5 µM. Further, the Vd in data set [7] was 29 L/kg. Moreover, in data set [8], the clearance is 9.9 L/h/kg. Also, the half-life in data set [9] was 5.9 h.
Regarding `Cn1nc(-c2ccc(OCC34CCC(N)(CC3)CC4)c(F)c2)c2cnc(N)nc21`, the bioavailability in data set [1] turned out to be 36%. In data set [2], this compound gave a Cmax of 0.506 µM. In addition, in data set [3], the AUC was found to be 3.05 µM·h. The pIC50 is 7.42 on Toll-like receptor 7 [4], 6.08 on Toll-like receptor 9 [5] and 5.57 on Toll-like receptor 9 [6]. The Vd in data set [7] stood at 15 L/kg. In data set [8], the clearance was found to be 5.88 L/h/kg. For the same compound, the half-life in [9] is 4.1 h.
